pEC50: −log10 of the molar value. Bounds are passed on as bounds.

The values below come from US12162857B2, “Antiviral compounds” (priority 2022, dated 2024).

The first assay deals with HMPV A2 TN/94-49. Briefly: HMPV antiviral assay: LLC-MK2 cells, ATP-Lite readout. The class given is cell-based. The following applies: LLC-MK2, 168 h, MOI 0.005, 7 days incubation. On the procedure:
In vitro HMPV antiviral activity was evaluated using the clinical isolate A2 strain TN 94-49 and LLC-MK2 cells (ATCC #CCL-7), an immortalized kidney epithelial cell line from Macaca mulatta. Compounds were resuspended in dimethyl sulfoxide (DMSO) at 10 mM, serially diluted and added to a 384-well source plate. Subsequently, the compounds were diluted and transferred onto 384-well assay plates using the Echo-650 automated liquid handling system (Beckman Coulter, Indiana). The test compounds were assessed in duplicate at a top concentration of 2 μM followed by 2.5-fold serial dilutions to give a total of 10 concentration points. DMSO control wells were also included on the assay plates and were either infected or not, acting as positive and negative controls. A2 TN 94-49 virus infections were performed in-suspension with LLC-MK2 cells. The cells were washed twice with PBS and removed from the cell-culture flask with 0.25% trypsin-EDTA (Thermo Fisher Scientific, MA). The trypsin-EDTA was inactivated by resuspending in 2% fetal bovine serum (FBS) and OptiMEM (ThermoFisher Scientific, MA) containing 1% penicillin-streptomycin. Cells were pelleted by centrifuging for 5 minutes at 800 rpm, the supernatant was removed, and cells were re-suspended and washed in PBS plus 100 μg/mL CaCl2). This step was performed twice. Cells were then re-suspended in serum-free (SF)-OptiMEM containing 4 μg/mL TPCK-Trypsin (Sigma Aldrich, MO), 1% penicillin-streptomycin (ThermoFisher Scientific, MA) and 100 μg/mL CaCl2). Cells were counted and seeded at a density of 5,000 cells/well, 12.5 μL/well. Virus infections were done at a multiplicity of infection (MOI) of 0.005 with 12.5 μL added per well. Virus infections were performed in infection media which contained SF-OptiMEM, 100 μg/mL CaCl2) and 1% penicillin-streptomycin. HMPV viral stocks are suspended in infection media+5% glycerol, thus an equal volume of infection media+5% glycerol was added to uninfected wells to equalize the final % glycerol across all wells of the assay plate. The final concentration of TPCK-trypsin was 2 μg/mL. The assay plates were incubated at 37° C., 5% CO2 for 7 days. After 7 days incubation, 12.5 μL of ATP-Lite (PerkinElmer, MA) was added to each well and the raw luminescence values were determined using the Envision 2104 (Perkin Elmer, MA). The average of the raw luminescence values for the cells and virus only positive control wells was subtracted from all conditions tested and the percent cell health was determined by dividing these values by the average of the cells only negative control wells. EC50 values were then calculated by non-linear regression using a four-parameter curve logistic equation. The curve fit model employed was XLFit Dose Response One Site Model 200: y=(A+(B/(1+((x/C)^D)))), where A is the minimum y value, B is the maximum y value, C is the log EC50 value, and D is the slope factor. […] EC50 ranges are as follows: A<1 μM; B>1 μM.
Take `COc1cc(C(=O)NC[C@@](O)(c2ccccc2)c2cc(C(C)(C)C(N)=O)c(F)c(-c3cc(Cl)c(F)cc3F)n2)cc2cn(C3CC3)nc12` [Example 160]: the pEC50 is over 6.00.
Take `COc1cc(C(=O)NC[C@@](O)(c2ccccc2)c2cc(C(C)(C)C(N)=O)c(F)c(-c3cc(Cl)c(F)cc3F)n2)cc2cn(C(F)F)nc12` [Example 161]: the pEC50 is under 6.00.
Consider `CC(C)(C(N)=O)c1cc([C@@](O)(CNC(=O)c2cc(Cl)c3nn(C4CC4)cc3c2)c2ccccc2)nc(-c2cc(Cl)c(F)cc2F)c1F` [Example 162], for which the pEC50 was over 6.00.
`COc1cc(C(=O)NC[C@@](O)(c2ccccc2)c2cc(C(C)(C)C(N)=O)c(F)c(-c3cc(Cl)c(F)cc3F)n2)cc2sc(C)nc12` [Example 163] gave a pEC50 of under 6.00.
The compound `COc1cc(C(=O)NC[C@](O)(c2cc(C3(O)COC3)c(F)c(-c3ccc(F)cc3)n2)C2CC2)cc2cn(C3CC3)nc12` [Example 166] showed a negative-log EC50 (pEC50) of under 6.00.
`COc1cc(C(=O)NC[C@](O)(c2cc(C3(O)COC3)c(F)c(-c3cc(Cl)c(F)cc3F)n2)C2CC2)cc2cn(C3CC3)nc12` [Example 167] had a pEC50 of under 6.00.
On to `COc1cc(C(=O)NC[C@](O)(c2cc(C3(O)COC3)c(F)c(-c3cc(Cl)c(F)cc3F)n2)C2CC2)cc2cn(C3(F)CC3)nc12` [Example 168], for which the pEC50 is under 6.00.
`COc1cc(C(=O)NC[C@](O)(c2cc(C3(O)COC3)c(F)c(-c3cc(Cl)c(F)cc3F)n2)C2CC2)cc2cn(C(F)F)nc12` [Example 169] gave a pEC50 of under 6.00.
In turn, `COc1cc(C(=O)NC[C@](O)(c2ccc(F)c(-c3cc(Cl)c(F)cc3F)n2)C2CC2)cc2cn(C3CC3)nc12` [Example 171] had a pEC50 of under 6.00.
`COc1cc(C(=O)NC[C@](O)(c2ccc(F)c(-c3cc(F)c(F)cc3F)n2)C2CC2)cc2cn(C3CC3)nc12` [Example 172] gave a pEC50 of under 6.00.
For the compound `COc1cc(C(=O)NC[C@](O)(c2ccc(F)c(-c3cc(Cl)c(F)cc3F)n2)C2CC2)cc2cn(C3(F)CC3)nc12` [Example 173], the pEC50 is under 6.00.
The same measure, in the same setting: as for `COc1cc(C(=O)NC[C@](O)(c2ccc(F)c(-c3cc(Cl)c(F)cc3F)n2)C2CC2)cc2cn(C(F)F)nc12` [Example 174], the figure is under 6.00.
`COc1cc(C(=O)NC[C@](O)(c2ccc(F)c(-c3cc(Cl)c(F)cc3F)n2)C2CC2)cc2cc(C)cnc12` [Example 175] gave a negative logarithm of the EC50 (pEC50) of under 6.00.
For `COc1cc(C(=O)NC[C@](O)(c2ccc(F)c(-c3cc(Cl)c(F)cc3F)n2)C2CC2)cc2cc(Cl)c(C)nc12` [Example 176], the pEC50 was under 6.00.
As to `COc1cc(C(=O)NC[C@](O)(c2cc(C(C)(C)F)c(F)c(-c3cc(Cl)c(F)cc3F)n2)C2CC2)cc2cc(C3CC3)nn12` [Example 178], the pEC50 was under 6.00.
On to `COc1cc(C(=O)NC[C@](O)(c2cc(C(C)(C)F)c(F)c(-c3cc(Cl)c(F)cc3F)n2)C2CC2)cc2cn(C(F)F)nc12` [Example 179], for which the pEC50 was under 6.00.
With `COc1cc(C(=O)NC[C@@](O)(c2ccccc2)c2cc(C(C)(C)F)c(F)c(-c3cc(Cl)c(F)cc3F)n2)cc2cn(C3CC3)nc12` [Example 180], the negative logarithm of the EC50 (pEC50) was under 6.00.
In the case of `COc1cc(C(=O)NC[C@@](O)(c2ccccc2)c2cc(C(C)(C)F)c(F)c(-c3cc(Cl)c(F)cc3F)n2)cc2cc(C3CC3)nn12` [Example 181], the pEC50 was under 6.00.
`COc1cc(C(=O)NC[C@@](O)(c2ccccc2)c2cc(C(C)(C)F)c(F)c(-c3cc(Cl)c(F)cc3F)n2)cc2cn(C(F)F)nc12` [Example 182]: the pEC50 was under 6.00.
Compound `[2H]C([2H])([2H])C(O)(c1cc([C@@](O)(CNC(=O)c2cc(OC)c3nn(C4CC4)cc3c2)C2CC2)nc(-c2cc(Cl)c(F)cc2F)c1F)C([2H])([2H])[2H]` [Example 186] gave a pEC50 of over 6.00.
`[2H]C([2H])([2H])C(O)(c1cc([C@@](O)(CNC(=O)c2cc(OC)n3nc(C4CC4)cc3c2)C2CC2)nc(-c2cc(Cl)c(F)cc2F)c1F)C([2H])([2H])[2H]` [Example 187]: the negative-log EC50 (pEC50) was over 6.00.
The same measure, in the same setting: as for `[2H]C([2H])([2H])C(O)(c1cc([C@@](O)(CNC(=O)c2cc(OC)c3nn(C(F)F)cc3c2)C2CC2)nc(-c2cc(Cl)c(F)cc2F)c1F)C([2H])([2H])[2H]` [Example 188], the figure is over 6.00.
`COc1cc(C(=O)NC[C@@](O)(c2ccccc2)c2cc(C(=O)Nc3ncc[nH]3)c(F)c(-c3cc(Cl)c(F)cc3F)n2)cc2cn(C3CC3)nc12` [Example 190] showed a pEC50 of under 6.00.
Consider `COc1cc(C(=O)NC[C@@](O)(c2ccccc2)c2cc(C(=O)Nc3ncco3)c(F)c(-c3cc(Cl)c(F)cc3F)n2)cc2cn(C3CC3)nc12` [Example 191], for which the pEC50 is under 6.00.
Compound `CNC(=O)c1cc([C@@](O)(CNC(=O)c2cc(OC)c3nn(C4CC4)cc3c2)c2ccccc2)nc(-c2cc(Cl)c(F)cc2F)c1F` [Example 192] had a pEC50 of under 6.00.
As to `COc1cc(C(=O)NC[C@@](O)(c2ccccc2)c2cc(C(=O)NCC(C)(C)O)c(F)c(-c3cc(Cl)c(F)cc3F)n2)cc2cn(C3CC3)nc12` [Example 193], the pEC50 is under 6.00.
On the same count and under the same terms, as for `COc1cc(C(=O)NC[C@@](O)(c2ccccc2)c2cc(C(=O)NC3CC3)c(F)c(-c3cc(Cl)c(F)cc3F)n2)cc2cn(C3CC3)nc12` [Example 194], the figure is under 6.00; as for `COc1cc(C(=O)NC[C@@](O)(c2ccccc2)c2cc(N3C(=O)CC[C@H]3C(N)=O)cc(-c3cc(Cl)c(F)cc3F)n2)cc2cn(C3CC3)nc12` [Example 196], under 6.00; as for `COc1cc(C(=O)NC[C@@](O)(c2ccccc2)c2cc(N3C(=O)CCC3C(N)=O)cc(-c3cc(Cl)c(F)cc3F)n2)cc2cn(C3CC3)nc12` (stereo partly drawn) [Example 197], under 6.00.
Same read-out and setting: as for `COc1cc(C(=O)NC[C@@](O)(c2ccccc2)c2cc(N3CC[C@H](O)C3)cc(-c3cc(Cl)c(F)cc3F)n2)cc2cn(C3CC3)nc12` [Example 198], the figure is under 6.00.

Another assay has as its system Human RSV-A (“Long” strain). The assay is described as follows: RSV-A assay: CPE in Hep-2 cells, ATPlite readout. The class given is cell-based. As to conditions: human respiratory syncytial virus, 120 h, MOI 0.1, 5-day incubation. The text has this: Hep-2 cells, (originally derived from tumors grown in irradiated-cortisonised weanling rats that had been injected with epidermoid carcinoma tissue from a person's larynx, but later found to be indistinguishable from HeLa cells by PCR DNA analysis), were used for the culturing of genotype A, “Long” strain RSV. Flasks were inoculated with RSV and viral stocks were collected once cytopathic effect (CPE) was greater than 90%. Viral stocks in 25% sucrose media were snap frozen using liquid nitrogen to increase viral stability. Viral stock titers were quantified by tissue culture infectious dose 50% (TCID50) using 8,000 cells per well and 3-fold viral dilutions across a 96-well plate, cultured for 4 days. Viral stock titers were also quantified by a plaque forming unit assay, as described elsewhere.
Following extensive parameter testing, the final assay is run as follows: Hep-2 cells are seeded into the inner 60 wells of a 96-well plate at 8,000 cells per well in a volume of 50 μL using Growth Media (DMEM without phenol red, 1% L-Glut, 1% Penn/Strep, 1% nonessential amino acids, 10% heat-inactivated FBS). 2-fold serial dilutions of control and test compounds are added to the wells in duplicate in a total volume of 25 μL. Viral stock is then added to the wells at a multiplicity of infection (MOI) of 0.1 in a volume of 25 μL, bringing the total volume of each well to 100 μL. The MOI is calculated using the PFU/mL, or TCID50 if unavailable. Each 96-well plate has a control column of 6 wells with cells and virus but no compound (negative control, max CPE), a column with cells but no compound or virus (positive control, minimum CPE), and a column with no cells or virus or compound (background plate/reagent control). The control wells with cells but no virus are given an additional 25 μL of growth media containing an equal quantity of sucrose as those wells receiving the viral stock in order to keep consistent in media and volume conditions. The outer wells of the plate are filled with 125 μL of moat media (DMEM, 100 Penn/Strep) to act as a thermal and evaporative moat around the test wells. Following a 5-day incubation period, the plates are read using ATPlite (50 uL added per well), which quantifies the amount of ATP (a measure of cell health) present in each well. Assay plates are read using the Envision luminometer. […] EC50 ranges are as follows: A<0.01 μM; B 0.01-0.05 μM; C>0.05 μM.
A general note: In ATP-based viability assays light output follows the ATP content of the culture.
Compound `COc1cc(C(=O)NC[C@](O)(c2cc(C3(C(N)=O)CC3)c(F)c(-c3cc(Cl)c(F)cc3F)n2)C2CC2)cc2cn(C3CC3)nc12` (single isomer, unassigned) [Example 11] gave a pEC50 of 7.30 to 8.00.
The same measure, in the same setting: as for `COc1cc(C(=O)NC[C@](O)(c2cc(C3(C#N)CC3)c(F)c(-c3cc(Cl)c(F)cc3F)n2)C2CC2)cc2cn(C3CC3)nc12` (single isomer, unassigned) [Example 12], the figure is 7.30 to 8.00.
In the case of `COc1cc(C(=O)NC[C@](O)(c2cc(C3(C(N)=O)CC3)c(F)c(-c3cc(Cl)c(F)cc3F)n2)C2CC2)cc2cn(C3(F)CC3)nc12` (single isomer, unassigned) [Example 13], the pEC50 is 7.30 to 8.00.

A word on the pEC50: it is −log10 of the EC50, conventionally taken in molar units.
